Reference: US12617777B2, “GPR84 antagonists and uses thereof” (Liminal BioSciences Limited, priority 2021, dated 2026)

What was measured:
human GPR84 receptor = target: T1, human GPR84 receptor (Homo sapiens, UniProt Q9NQS5); test: Gαi biosensor BRET assay in HEK293 cells (antagonism of ZQ-16); type: cell-based; details: for inhibition at 10 µM: HEK293, single concentration 10 μM (designated F); for IC50: HEK293 cells, antagonism of 200 nmol/L ZQ-16; for inhibition at 2 µM: HEK293, single concentration 2 μM (designated A)
T1 construct: host or cells: HEK293, transient transfection
T1 sequence (Q9NQS5 whole entry): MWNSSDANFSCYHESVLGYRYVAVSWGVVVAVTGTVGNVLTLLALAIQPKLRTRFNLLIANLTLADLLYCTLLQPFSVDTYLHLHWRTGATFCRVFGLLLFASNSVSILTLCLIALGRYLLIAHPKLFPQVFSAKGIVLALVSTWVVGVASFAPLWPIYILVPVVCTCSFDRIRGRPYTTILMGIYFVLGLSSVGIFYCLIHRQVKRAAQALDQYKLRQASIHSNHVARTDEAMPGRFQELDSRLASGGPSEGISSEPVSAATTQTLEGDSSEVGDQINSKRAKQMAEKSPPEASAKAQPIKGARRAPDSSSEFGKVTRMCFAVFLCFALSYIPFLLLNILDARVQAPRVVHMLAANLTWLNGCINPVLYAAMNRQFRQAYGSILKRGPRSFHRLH
Outline: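 HEK293 cells transiently expressing human GPR84, Gαi2-Rluc8, GFP10-Gγ2 and Gβ1, in Tyrode's buffer pH 7.5. Compounds preincubated 5 min at 37° C, then 200 nmol/L ZQ-16 for 5 min at room temperature; coelenterazine 400A 5 μmol/L. BRET2 acceptor/donor ratio, background- and vehicle-corrected net BRET.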

neutrophils = test: Neutrophil migration assay (embelin as chemotactic agent, ATPlite readout); type: cell-based; details: for IC50: Neutrophil, human neutrophils, embelin as chemotactic agent, read-out: Human Neutrophil migration inhibition IC50; for Human Neutrophil migration inhibition - fold potency to Control Compound: normalized to GPR84 antagonist Control Compound (average IC50 131 nM)
Experimental: Neutrophil migration assay. After isolation, neutrophils were resuspended in chemotaxis buffer (DMEM supplemented with 10 mM HEPES) at a concentration of 8.9×10^6 cells/ml. In a 96-well plate, 20 μl of compound solution in chemotaxis buffer is added to 180 μl of cell suspension. After incubation at 37° C. for 30 minutes, 75 μl of cell suspension is transferred in the upper chamber of a 5 μm pore size Corning HTS transwell. 235 μl of chemotaxis buffer containing the chemotactic agent (embelin) is added to the lower chamber of the transwell. After a 60-minute incubation time at 37° C. in 5%0 C02, the upper chamber of the transwell is removed and the plate is centrifuged at 1500 rpm for 6 minutes. Supermatant is removed and cells resuspended in 100 ul of PBS. ATP content was assessed using ATPlite Luminescence Assay System® according to manufacturer instructions (Perkin Elmer, Buckinghamshire, UK). Briefly, 50 μl of ATPlite buffer and 50 μl of lysis solution is added to the lower chamber of the Transwells. After incubation at room temperature, in the dark with constant agitation for 5 minutes, 150 μl of cell lysate is transferred in a 96 wells white plate and incubated for 10 minutes in the dark. Luminescence is read on a TECAN plate reader, Infinite M1000 (Tecan, Morrisville, NC).
The compound numbers correspond to the compound numbers in Table 1. […] Normalization of the results takes the donor's variation into account.

[1] = tested on: mouse dextran sodium sulfate-induced chronic inflammatory bowel disease model; details: once-daily doses of 3 and 10 mg/kg; efficacy similar to sulfasalazine; cited from earlier work

SMILES	inhibition at 10 µM (human GPR84 receptor)	IC50 (human GPR84 receptor)	IC50 (neutrophils)	inhibition at 2 µM (human GPR84 receptor)	Human Neutrophil migration inhibition - fold potency to Control Compound (neutrophils)	disease activity index score [1]	neutrophil infiltration [1]
CN(C)c1cc(C#CCNc2ccccc2)ccc1-c1cn(CC2CC(C)(C)CO2)nn1 (stereo not drawn) [Compound I-460]	> 75%	300 to 1000 nM	≤ 300 nM		A (IC50 of >1.0-fold relative to Control Compound)		
CCc1cc(C#CCNc2ccccc2)cnc1-c1cn(CC2CC(C)(C)CO2)nn1 (stereo not drawn) [Compound I-474]		300 to 1000 nM	≤ 300 nM	> 75%	A (IC50 of >1.0-fold relative to Control Compound)		
CN(C)c1cc(N2CC(C)(CO)C2)ccc1-c1cn(CC2CC(C)(C)CO2)nn1 (stereo not drawn) [Compound I-499]	> 75%	300 to 1000 nM	≤ 300 nM		A (IC50 of >1.0-fold relative to Control Compound)		
Cc1cc(N2CCN(Cc3ccccn3)CC2)ccc1-c1cn(CC2CC(C)(C)CO2)nn1 (stereo not drawn) [Compound I-530]	> 75%	≤ 300 nM	≤ 300 nM		A (IC50 of >1.0-fold relative to Control Compound)		
Cc1cc(N2CCN(Cc3ccccn3)CC2)ccc1-c1cn(CC2OCC(C)(C)CO2)nn1 [Compound I-531]	> 75%	≤ 300 nM	≤ 300 nM		A (IC50 of >1.0-fold relative to Control Compound)		
Cc1cc(N2CCN(Cc3ccccn3)CC2)ccc1-c1cn(CC2CCC(C)(C)CO2)nn1 (stereo not drawn) [Compound I-562]	> 75%	≤ 300 nM	≤ 300 nM		A (IC50 of >1.0-fold relative to Control Compound)		
CN(C)c1cc(N2CC(C)(C)C2)ccc1-c1cn(CC2OCC(C)(C)CO2)nn1 [Compound I-585]	> 75%	≤ 300 nM	≤ 300 nM		A (IC50 of >1.0-fold relative to Control Compound)		
Cc1cc(C#CCN2CC(C)(C)C2)cnc1-c1cn(CC2OCC(C)(C)CO2)nn1 [Compound I-596]	> 75%	300 to 1000 nM	≤ 300 nM		A (IC50 of >1.0-fold relative to Control Compound)		
CCc1cc(N2CC(C)(C)C2)ccc1-c1cn(CC2OCC(C)(C)CO2)nn1 [Compound I-618]	> 75%	≤ 300 nM	≤ 300 nM		A (IC50 of >1.0-fold relative to Control Compound)		
CCc1cc(C#CCO)ccc1-c1cn(CC2OCC(C)(C)CO2)nn1 [Compound I-620]	> 75%	≤ 300 nM	≤ 300 nM		A (IC50 of >1.0-fold relative to Control Compound)		
Cc1cc(C#CCN2CC(C)(C)C2)ccc1-c1cn(CC2OCC(C)(C)CO2)nn1 [Compound I-634]	> 75%	≤ 300 nM	≤ 300 nM		A (IC50 of >1.0-fold relative to Control Compound)		
Cc1cc(N2CCN(Cc3ccccn3)CC2)ccc1-c1cn(CC2OCC3(CC3)CO2)nn1 [Compound I-637]		300 to 1000 nM	≤ 300 nM	> 75%	A (IC50 of >1.0-fold relative to Control Compound)		
CC(C)Oc1cc(C#CC2CC(F)(F)C2)cnc1-c1cn(CC2OCC(C)(C)CO2)nn1 [Compound I-650]		300 to 1000 nM	≤ 300 nM	> 75%	A (IC50 of >1.0-fold relative to Control Compound)		
CC(C)Oc1cc(C#CC2CC2)cnc1-c1cn(CC2OCC(C)(C)CO2)nn1 [Compound I-651]		≤ 300 nM	≤ 300 nM	> 75%	A (IC50 of >1.0-fold relative to Control Compound)		
O=c1nc(OC[C@@H]2COCCO2)cc2n1CCc1cc(C#CC3CC3)ccc1-2 [GLPG1205]						reduced	reduced

Second part, led by results:

inhibition at 10 µM (human GPR84 receptor)	IC50 (human GPR84 receptor)	IC50 (neutrophils)	inhibition at 2 µM (human GPR84 receptor)	SMILES	Human Neutrophil migration inhibition - fold potency to Control Compound (neutrophils)	disease activity index score [1]	neutrophil infiltration [1]
> 75%	1000 to 3000 nM	≤ 300 nM		CC(C)c1cc(C#CCN2CC(C)(C)C2)cnc1-c1cn(CC2CCCCO2)nn1 (stereo not drawn) [Compound I-462]	C (IC50≤0.5-fold relative to Control Compound)		
	300 to 1000 nM	≤ 300 nM	> 75%	Cc1cc(N2CC(C)(CNc3ccccn3)C2)ccc1-c1cn(CC2CCCCO2)nn1 (stereo not drawn) [Compound I-464]	C (IC50≤0.5-fold relative to Control Compound)		
> 75%	≤ 300 nM	≤ 300 nM		CC(C)Oc1cc(C#CC2CC2)cnc1-c1cn(CC2CCCCO2)nn1 (stereo not drawn) [Compound I-478]	B (IC50 of >0.5-≤1.0-fold relative to Control Compound)		
	300 to 1000 nM	≤ 300 nM	50 to 75%	CO[C@@H](c1cn(C[C@H]2CCCCO2)nn1)c1cc(C#CC2CC2)ccc1C [Compound I-510]	B (IC50 of >0.5-≤1.0-fold relative to Control Compound)		
	≤ 300 nM	≤ 300 nM	> 75%	CO[C@H](c1cn(C[C@H]2CCCCO2)nn1)c1cc(C#CC2CC2)ccc1C [Compound I-511]	A (IC50 of >1.0-fold relative to Control Compound)		
	300 to 1000 nM	≤ 300 nM	> 75%	CO[C@H](c1cn(C[C@@H]2CCCCO2)nn1)c1cc(C#CC2CC2)ccc1C [Compound I-512]	C (IC50≤0.5-fold relative to Control Compound)		
> 75%	≤ 300 nM	≤ 300 nM		CCc1cc(C#CCNc2cccnc2)cnc1-c1cn(C[C@H]2CCCCO2)nn1 [Compound I-535]	B (IC50 of >0.5-≤1.0-fold relative to Control Compound)		
25 to 50%	300 to 1000 nM	≤ 300 nM		Cc1cc(N2CC(C)(N(C)Cc3ccccc3)C2)ccc1-c1cn(CC2CCCCO2)nn1 (stereo not drawn) [Compound I-553]	B (IC50 of >0.5-≤1.0-fold relative to Control Compound)		
> 75%	300 to 1000 nM	≤ 300 nM		CCc1cc(C#CCNC(=O)OC(C)(C)C)ccc1-c1cn(CC2CCCCO2)nn1 (stereo not drawn) [Compound I-572]	A (IC50 of >1.0-fold relative to Control Compound)		
> 75%	300 to 1000 nM	≤ 300 nM		Cc1cc(N2CCN([C@@H](C)c3ccccn3)CC2)ccc1-c1cn(C[C@H]2CCCCO2)nn1 [Compound I-612]	A (IC50 of >1.0-fold relative to Control Compound)		
	300 to 1000 nM	≤ 300 nM	> 75%	Cc1ccc(C#CC2CC2)cc1C(OC1CC1)c1cn(CC2OCC(C)(C)CO2)nn1 (stereo not drawn) [Compound I-644]	A (IC50 of >1.0-fold relative to Control Compound)		
